US20260028390A1, “ALPHA1-ANTITRYPSIN FOR USE IN THE TREATMENT OF DISEASES OR DISORDERS OF THE NERVOUS SYSTEM SUCH AS CHRONIC INFLAMMATORY DEMYELINATING POLYNEUROPATHY” (Ageronix SA, priority 2022, published 2026)

System: HMC3-MHCII^Luc cells
Assay: RNAseq differential gene expression / GSEA in AAT-treated resting and IFNγ-activated microglia
Assay type: cell-based, human
Procedure: • A) Human microglial HMC3-MHCII^Luc cells were plated at day 0, presented IFNγ at day 1 until day 2 and measurement of the luciferase activity and cell viability were done at day 4. • B) AATs were applied from day 0 to day 4 on HMC3-MHCII^Luc cells. Activation was measured by the activity of MHCII-driven luciferase and represented as percentage of IFNγ control for all conditions. All conditions were performed in triplicates, error bars represent standard deviation. • C) Bulk RNA extraction was performed on the same HMC3-MHCII^Luc cultures. Quality control (QC) were applied to RNA before sequencing. QC of the sequencing was done prior to mapping on the human genome. Mapped reads were counted, and differential gene expression was measured between the conditions (see Table 1-10). (FIGS. 3A, 3B and 3C)
RNAseq data from plasma-derived and recombinant AATs were pooled, normalized and analyzed through Gene Set Enrichment Analysis (GSEA) (https://www.gsea-msigdb.org/gsea/index.jsp; Subramanian, A., et al. Proc. Natl. Acad. Sci. USA, 102 (43): 15545-15550, 2005.). […] Importantly, both the IFNγ and inflammatory responses were dampened by AAT. However, the downregulation of the inflammatory response genes in (C) was just under significance.
Tables of genes related to antigen presentation (Table 1), cytokine signaling (Table 2), interferon signaling (Table 3) and complement activation (Table 4). Inflammatory top gene (FC>2; p-value<0.05; left column), were defined by differential expression between untreated and IFNγ-treated cells (inflammation; middle column).
HMC3-MHCII^Luc and HMC3-MHCII^Luc; Ubi^AAT (endogenous AAT) cell lines were seeded into 96-well plates at a density of approximately 2500 cells/well. HMC3-MHCII^Luc cell line was plated and was added plasma-derived AAT and recombinant AATs (produced in CHO cells, AAT 1 and AAT 2) 3h later and at ranged concentration (1; 10 or 25 μM). 24h after, still in the presence of exogenous or endogenous AAT, microglial activation was induced with a 24h-long IFNγ presentation (10 ng/ml). IFNγ was then removed and both HMC3-MHCII^Luc and HMC3-MHCII^Luc; Ubi^AAT cells were cultured for 48h in exogenous or endogenous presence of AAT before cell cultures were beeing assessed for cell viability and activation (See FIGS. 3A, 3B, 3C and 4A,4B, 4C).
RNA samples from plasma-derived AAT and recombinant AAT Nr. 2 were checked for quality (2100 Bioanalyzer, Agilent) and libraries prepared with Truseq RNA Library Kit (Illumina, RS-122-2001). Libraries were sequenced (HiSeq 4000, Illumina) controlled for the quality of sequencing (FastQC), mapped on the human genome (STAR v.2.7.0f; UCSC hg38), reads were counted (HTSeq v0.9.1) and the differential expression analysis was performed with the R/Bioconductor package (edgeR 1.30.1.).

[1] = Inflammation + AAT, AD risk gene
[2] = Inflammation + AAT, MCT*/PN risk gene
[3] = Inflammation + AAT, MS risk gene
[4] = Inflammation + AAT, PD risk gene
[5] = Regulated in AAT (resting condition), antigen presentation
[6] = Regulated in AAT (resting condition), cytokine signalling
[7] = Regulated in AAT (resting condition), interferon signaling
[8] = head prints AAT (right block), GBS risk gene
[9] = inflammation + AAT, antigen presentation
[10] = inflammation + AAT, complement activation
[11] = inflammation + AAT, cytokine signalling
[12] = inflammation + AAT, interferon signaling

alpha1-antitrypsin (AAT) protein
IGFBP2 expression FC (FC inflammation + AAT, M2 gene): 1.34
IL1R1 expression FC (FC inflammation + AAT, M2 gene): 1.18
ITGA11 expression FC (FC inflammation + AAT, M2 gene): 1.54
KANK2 expression FC (FC inflammation + AAT, M2 gene): 1.25
KDM2B expression FC (FC inflammation + AAT, M2 gene): 1.17
KIAA1549L expression FC (FC inflammation + AAT, M2 gene): 1.44
LDHA expression FC (FC inflammation + AAT, M2 gene): 1.21
LOXL2 expression FC (FC inflammation + AAT, M2 gene): 1.25
MBOAT7 expression FC (FC inflammation + AAT, M2 gene): 1.37
METRN expression FC (FC inflammation + AAT, M2 gene): 1.64
MIF expression FC (FC inflammation + AAT, M2 gene): 1.72
MMP1 expression FC (FC inflammation + AAT, M2 gene): 2.39
MXRA8 expression FC (FC inflammation + AAT, M2 gene): 1.49
OLFML2B expression FC (FC inflammation + AAT, M2 gene): 1.44
PAPPA expression FC (FC inflammation + AAT, M2 gene): 1.31
PLEC expression FC (FC inflammation + AAT, M2 gene): 1.54
PLLP expression FC (FC inflammation + AAT, M2 gene): 1.46
PREX1 expression FC (FC inflammation + AAT, M2 gene): 1.28
PRSS23 expression FC (FC inflammation + AAT, M2 gene): 1.16
PTPRS expression FC (FC inflammation + AAT, M2 gene): 1.23
RASAL1 expression FC (FC inflammation + AAT, M2 gene): 1.45
SEMA3B expression FC (FC inflammation + AAT, M2 gene): 1.39
SERPINH1 expression FC (FC inflammation + AAT, M2 gene): 1.20
SH3PXD2B expression FC (FC inflammation + AAT, M2 gene): 1.19
SLC16A3 expression FC (FC inflammation + AAT, M2 gene): 1.65
STC2 expression FC (FC inflammation + AAT, M2 gene): 1.32
TBCD expression FC (FC inflammation + AAT, M2 gene): 1.26
TCEAL2 expression FC (FC inflammation + AAT, M2 gene): 1.30
TGFB1I1 expression FC (FC inflammation + AAT, M2 gene): 1.26
TGFBI expression FC (FC inflammation + AAT, M2 gene): 1.18
THBS1 expression FC (FC inflammation + AAT, M2 gene): 1.34
TNFRSF1B expression FC (FC inflammation + AAT, M2 gene): 1.23
ZIC2 expression FC (FC inflammation + AAT, M2 gene): 2.77
ZNF319 expression FC (FC inflammation + AAT, M2 gene): 1.25
ABCA7 expression FC [1]: 1.36
APOE expression FC [1]: 1.55
BIN1 expression FC [1]: 1.43
PICALM expression FC [1]: −1.29
PSEN2 expression FC [1]: 1.28
TREM2 expression FC [1]: 1.47
CCT5 expression FC [2]: −1.13
DNAJB2* expression FC [2]: 1.20
DST expression FC [2]: 1.30
GARS* expression FC [2]: −1.24
GDAP1* expression FC [2]: −1.24
HSPB1* expression FC [2]: 1.56
IGHMBP2* expression FC [2]: 1.21
INF2 expression FC [2]: 1.35
KARS* expression FC [2]: −1.13
LMNA* expression FC [2]: 1.39
MED25* expression FC [2]: 1.38
NDRG1* expression FC [2]: 1.30
SCN9A expression FC [2]: −1.66
SEPT9 expression FC [2]: 1.29
TFG* expression FC [2]: −1.19
TUBB3 expression FC [2]: 1.44
TRPV4* expression FC (Inflammation + AAT, MCT*/PN risk gene, first TRPV4* line): 1.72
TRPV4* expression FC (Inflammation + AAT, MCT*/PN risk gene, second TRPV4* line): 1.40
AGAP2 expression FC [3]: 1.45
CYP24A1 expression FC [3]: 1.34
DKKL1 expression FC [3]: 2.12
HLA-A expression FC [3]: 1.57
HLA-DRB1 expression FC [3]: 1.51
MPHOSPH9 expression FC [3]: −1.19
NFKBIZ expression FC [3]: −1.37
SLC30A7 expression FC [3]: −1.56
ZMIZ1 expression FC [3]: 1.47
ATP13A2 expression FC [4]: 1.49
DNAJC6 expression FC [4]: −1.12
GBA expression FC [4]: 1.15
LRP10 expression FC [4]: 1.23
PINK1 expression FC [4]: 1.20
PLA2G6 expression FC [4]: 1.37
SYNJ1 expression FC [4]: −1.23
UCHL1 expression FC [4]: −1.10
NFATC1 expression FC [5]: 1.44
TRAF6 expression FC [5]: −1.26
PLAU expression FC (Regulated in AAT (resting condition), complement activation): −1.27
BIRC2 expression FC [6]: −1.53
CEBPG expression FC [6]: −1.31
MYD88 expression FC [6]: −1.35
RASGRF2 expression FC [6]: −1.45
RIPK2 expression FC [6]: −1.30
SPTBN1 expression FC [6]: −1.21
STAT1 expression FC [6]: −1.47
TM7SF3 expression FC [6]: −1.18
TNFSF9 expression FC [6]: 1.26
TRAF6 expression FC [6]: −1.26
IRF2 expression FC [7]: −1.17
STAT1 expression FC [7]: −1.47
FOS expression FC AAT [8]: −1.54
GUK1 expression FC AAT [8]: 1.31
LY96 expression FC AAT [8]: −2.31
MARCKS expression FC AAT [8]: −1.84
NFIL3 expression FC AAT [8]: −1.22
ZNF12 expression FC AAT [8]: −1.23
genes related to the unfolded protein response (UPR) pathway and cell-survival (GSEA) (human microglial cells, AAT treatment): upregulation
CALR expression FC [9]: 1.35
CTSA expression FC [9]: 1.17
CTSD expression FC [9]: 1.47
HLA-DOB expression FC [9]: −4.49
HLA-DPB1 expression FC [9]: 1.31
HLA-DRA expression FC [9]: −2.22
IL1B expression FC [9]: −2.07
MRC2 expression FC [9]: 1.47
NFATC2 expression FC [9]: 1.63
PSMB9 expression FC [9]: −1.23
PYCARD expression FC [9]: 2.20
SOCS3 expression FC [9]: 1.20
TAPBP expression FC [9]: 1.23
C3AR1 expression FC [10]: −1.50
ITGAX expression FC [10]: 1.41
PLAUR expression FC [10]: 1.32
SERPINB2 expression FC [10]: −4.63
ANXA1 expression FC [11]: −1.33
ATF3 expression FC [11]: −1.26
CX3CL1 expression FC [11]: 1.61
CXCL1 expression FC [11]: −2.09
CXCL5 expression FC [11]: −2.15
DUSP6 expression FC [11]: −1.26
FGF2 expression FC [11]: −1.57
FSCN1 expression FC [11]: 1.48
HBEGF expression FC [11]: −1.30
IL1B expression FC [11]: −2.07
IL1R1 expression FC [11]: 1.18
IL18 expression FC [11]: −1.75
IL27RA expression FC [11]: 1.36
IL411 expression FC [11]: 1.95
JAK3 expression FC [11]: 1.43
MAP2K2 expression FC [11]: 1.51
MAP2K3 expression FC [11]: 1.37
MAPK11 expression FC [11]: 1.44
MAPK12 expression FC [11]: 1.33
MAPK13 expression FC [11]: 1.23
NFKBIZ expression FC [11]: −1.37
PSMB9 expression FC [11]: −1.23
RASAL1 expression FC [11]: 1.52
SOCS3 expression FC [11]: 1.20
STAT5A expression FC [11]: 1.45
TNFRSF9 expression FC [11]: −2.35
TRAF2 expression FC [11]: 1.42
CD44 expression FC [12]: 1.14
FLNB expression FC [12]: −1.20
HLA-DPB1 expression FC [12]: 1.31
HLA-DRA expression FC [12]: −2.22
IFIT1 expression FC [12]: −1.78
IFNAR1 expression FC [12]: −1.63
IRF3 expression FC [12]: 1.56
MX1 expression FC [12]: −2.00
MX2 expression FC [12]: −2.14
SOCS3 expression FC [12]: 1.20
USP18 expression FC [12]: −1.76
inflammatory top genes found affected by AAT treatment (top genes FC>2, p-value<0.05, significantly and oppositely regulated): ~35%
